Laboratory results: US20080187492A1, “Drosophila Models For Diseases Affecting Learning and Memory” (priority 2004, published 2008)

Assays:
[1] = tested on: Rescue (dFMR1-3+wild type rescue fragment) flies; assay: Naive courtship behavior (courtship index toward virgin female), Rescue flies; type: in vivo, Drosophila melanogaster; conditions: for naive courtship: MPEP 20 μg/ml, LY341495 400 nM in food
Description: (§1) Learning and memory (cognitive abilities) can be examined in Drosophila by utilizing several available learning and memory paradigms. The most popular is a classical conditioning paradigm in which the flies learn to associate electric shocks with olfactory cues (Dudia et al, 1976; Davis, 1993; Tully, 1994). An alternative paradigm to study learning and memory in Drosophila is called conditioned courtship, wherein a male fly learns to modify his courtship behavior after experience with an unreceptive female; it is a multi-sensory paradigm involving associations from more then one sensory input (Siegel and Hall, 1979; for review see Hall, 1994). It is a more complex associative learning paradigm and was utilized to assay learning and memory in this article to elucidate the role of dFMR1 in learning and memory (Tompkins et al, 1980; Tompkins et al, 1982; Tompkins et al, 1983; Tompkins et al, 1984; Ackerman and Siegel, 1986). Courting male flies perform a characteristic sequence of behaviors: orienting toward and following the female, tapping her with his forelegs, vibrating one or both wings, licking her genitalia, and attempting copulation (Sturtevant, 1915; Bastock and Manning, 1955; Bastock, 1956). These behaviors are repeated with some variation until successful copulation occurs. Virgin females will generally respond by mating; however, recently mated females will be unreceptive and will not allow copulation to occur (Spieth, 1974), they display different behaviors (Bastock and Manning, 1955; Connolly and Cook, 1973) and have an altered, although somewhat overlapping, pheromonal profile (Cobb and Ferveur, 1996). The naive male will find a previously mated female to have a pheromonal repertoire that is less provocative then that of a virgin female target. A naive male paired with a mated female will initially court her, but his courtship activity soon decreases; after 1 hour of experience with the mated female, his courtship when subsequently paired with a virgin female remains depressed for 2-3 hours (Siegel and Hall, 1979). This effect is not a general suppression of all courtship activity since a male's tendency to court an immature male is not suppressed (Gailey et al, 1984). […] These behaviors are quantified as a courtship index (CI) which is defined as the percentage of time a male fly spends performing any of the six courtship steps toward a target female in a ten minute test period. A decrease in CI after training with a previously mated female is indicative of behavioral plasticity in the form of learning or memory.
(§2) Since we use female targets that are not etherized (therefore they are freely moving), and the w118 and dfmr1-3 flies may have slightly impaired visual acuity due to lack of eye pigmentation, and since visual inputs affect courtship behavior, all subsequent experiments were done utilizing only the genotypes Rescue: dfmr1-3+wild type rescue fragment, and FS: dfmr1-3+frame shifted rescue fragment. Both of these genotypes have more pigmentation and similar levels of eye pigmentation to each other. For FIGS. 4 and 5, a high concentration of MPEP (1,000 μg/ml) was used. For the remainder of the experiments the food was either control (CT) or exactly the same control food containing the appropriate concentration of MPEP (M). The position of the CT and the M are indicative of the point at which the group was on the particular food. The first letter indicates the food type that the larvae grew up on, and the second letter denotes the food type that the adult flies were placed on within four hours of eclosion, and for the four following days, until the day before testing when they were placed on fresh food.
In order to determine if MPEP can get into the Drosophila central nervous system (CNS) through feeding behavior, we mixed MPEP into the food at a concentration of 1,000 μg/ml ([…]). Males were raised on CT food and then placed on either CT or M food. […]

[2] = tested on: FS (dFMR1-3+frame shifted rescue fragment) flies; assay: Naive courtship behavior (courtship index toward virgin female), FS flies; type: in vivo, Drosophila melanogaster; conditions: for naive courtship: MPEP 20 μg/ml, LY341495 400 nM in food
Description: as §1
as §2, with “and for the four following days, until the day before testing when they were placed on” left out
Naive males were placed in the training chamber for one hour with no female, and then placed with a virgin target female for a ten-minute interval. The naive courtship behavior was reduced by high MPEP concentration in Rescue (p<0.0001) and FS (p<0.0005) lines, and it was depressed to similar levels by high MPEP treatment in the Rescue and FS groups (FIG. 2A). […]

[3] = 5 day old, MPEP 200 μg/ml (86.6 μM) in development, with or without adulthood (M-M, M-CT)
[4] = 5 day old, MPEP 1,000 μg/ml (433.0 μM) in food in adulthood (CT-M)

Row | SMILES | naive courtship activity ([1]; 5 day old adults, 573 mM MPPG or 348 μM MTPG, p<0.0001 for both) | naive courtship activity ([2]; 5 day old adults, 573 mM MPPG (p<0.0001) or 348 μM MTPG (p<0.005)) | naive courtship ([1]; 5 day old) | naive courtship ([2]; 5 day old) | naive courtship activity ([1]; 5 day old, MPEP 200 μg/ml (86.6 μM) in adulthood only (CT-M), p<0.0001) | naive courtship activity [1, 3] | naive courtship behavior [1, 4] | naive courtship activity ([2]; 20-day-old, MPEP (86.6 μM) in adulthood only (CT-M)) | naive courtship activity ([2]; 20-day-old, MPEP (86.6 μM) in development and adulthood (M-M)) | naive courtship activity ([2]; 20-day-old, MPEP (86.6 μM) in development only (M-CT)) | naive courtship activity [2, 3] | naive courtship activity ([2]; 5 day old, MPEP 200 μg/ml (86.6 μM) in food in adulthood only (CT-M), p<0.005) | naive courtship behavior [2, 4]
1 | CC(N)(C(=O)O)c1ccc(-c2nnn[nH]2)cc1 (racemic) [MTPG, (RS)-α-methyl-4-tetrazolylphenylglycine] | significant decrease in courtship activity | significant increase in courtship activity | – | – | – | – | – | – | – | – | – | – | –
2 | N[C@](CC1c2ccccc2Oc2ccccc21)(C(=O)O)[C@H]1C[C@@H]1C(=O)O [LY341495, (2S)-2-amino-2-[(1S,2S)-2-carboxycycloprop-1-yl]-3-(xanth-9-yl) propionic acid] | – | – | suppressed naive courtship | significantly increased naive courtship | – | – | – | – | – | – | – | – | –
3 | Cc1cccc(C#Cc2ccccc2)n1 [MPEP, 2-methyl-6-(phenylethynyl)pyridine] | – | – | suppressed naive courtship | significantly increased naive courtship | depressed relative to CT-CT Rescue flies | courted as vigorously as CT-CT Rescues flies | reduced | significant increase in courtship activity | significant increase in courtship activity | did not demonstrate an increase in naive courtship activity | courtship levels similar to CT-CT Rescue flies | significant increase in courtship activity | reduced
